In patent US8034748B2, “Additives for inhibiting the formation of gas hydrates” (Clariant Produkte (Deutschland) GmbH, priority 2001, dated 2011):

Assay: Test as antiagglomerant (agglomerate inhibition) in stirred steel autoclave
Settings: 5 000 ppm additive based on aqueous phase; water and white spirit 1:2; gas 1, 90 bar; 2° C. for 25 hours
Experimental: To investigate the inhibiting action of the compounds according to the invention, a stirred steel autoclave having temperature control, pressure and torque sensor having an internal volume of 450 ml was used. For investigations of kinetic inhibition, the autoclave was filled with distilled water and gas in a volume ratio of 20:80, and, for investigations of agglomerate inhibition, condensate was additionally added. Finally, natural gas was injected at different pressures.
Starting from a starting temperature of 17.5° C., the autoclave was cooled to 2° C. within 2 h, then stirred at 2° C. for 18 h and heated back up to 17.5° C. within 2 h. An initial pressure decrease corresponding to the thermal compression of the gas is observed. When the formation of gas hydrate nuclei occurs during the supercooling time, the pressure measured falls, and an increase in the torque measured and a slight increase in temperature can be observed. Without inhibitor, further growth and increasing agglomeration of the hydrate nuclei lead rapidly to a further increase in the torque. When the mixture is heated, the gas hydrates decompose, so that the starting state of the experimental series is attained.
On the other hand, the torque measured in the autoclave serves as a parameter for the agglomeration of the hydrate crystals. The pressure drop measured (Δp) allows a direct conclusion on the amount of hydrate crystals formed.
Gas 1: 79.3% methane, 10.8% ethane, 4.8% propane, 1.9% butane, 1.4% carbon dioxide, 1.8% nitrogen. Supercooling below the equilibrium temperture of hydrate formation at 50 bar: 12° C.
In order to test the effectiveness as agglomerate inhibitors, the test autoclave used above was initially charged with water and white spirit (20% of the volume in a ratio of 1:2) and, based on the aqueous phase, 5 000 ppm of the particular additive were added. At an autoclave pressure of 90 bar using gas 1 and a stirrer speed of 5 000 rpm, the temperature was cooled from initially 17.5° C. within 2 hours to 2° C., then the mixture was stirred at 2° C. for 25 hours and heated again. The pressure drop caused by hydrate formation and the resulting torque at the stirrer, which is a measure of the agglomeration of the gas hydrates, were measured.

Which results are given for `CCCCC(CC)COC(=O)COCC[N+](C)(CCOCC(=O)OCC(CC)CCCC)C1CCCC1.COS(=O)(=O)[O-]` (stereo not drawn) [Example 46]?
Pressure drop Δ p: 15.1 bar; Temperature rise Δ T: 0.3 K; Torque Mmax: 0.3 Ncm

For `CCCCC(CC)COC(=O)COCC[N+](C)(CCOCC(=O)OCC(CC)CCCC)C1CCCCC1.COS(=O)(=O)[O-]` (stereo not drawn) [Example 48], which “Pressure drop Δ p” value is on record?
Its value is 15.3 bar.

And the “Temperature rise Δ T” value?
The value was 0.7 K.

What about the “Torque Mmax” value of the same compound?
Its value is 0.4 Ncm.

For `CCCCC(CC)COC(=O)COCC[N+](C)(CCCC)CCOCC(=O)OCC(CC)CCCC.COS(=O)(=O)[O-]` (stereo not drawn) [Example 50], which “Pressure drop Δ p” value is on record?
The value was 10.1 bar.

What about the “Temperature rise Δ T” value of the same compound?
The value was 0.1 K.

And the “Torque Mmax” value?
The value was 0.2 Ncm.
